We go through three molecules from article PMC3758303 (PLoS ONE, 2013).

Assay [1] concerns HCV-RNA replication. Also on record: method as in PMID 21620801, PMID 16875675. To be noted: cited from earlier work.
In assay [2] the test system is HCV-RNA replication in ORL8 cells. As to the kind of experiment: Effect of VE on anti-HCV activity, ORL8 RL assay. Format: cell-based, hepatitis C virus. To be noted: 72 hrs. On the procedure: After treatment, an RL assay of harvested ORL8 cell samples was performed. (B, D, and F) The ratio of RL activity in the presence of VE to the RL activity in the absence of VE. The above ratio was calculated from the data of (A, C, and E). […] (G) Western blot analysis was performed as described in Fig. 1B.
(§1) The ORL8 cells were treated with N-89 or IFN-α, and then RL assays were performed at 2 to 72 hrs after the treatment. The relative value (%) calculated at each time point, when the luciferase activity of non-treated cells at 24 hrs was assigned as 100%, is shown. Data are expressed as the means±standard deviation of triplicate assays. […] To evaluate this possibility, we examined the effect of VE on N-89 at the EC90 level in the ORL8 assay.

Assay [3] deals with genome-length HCV-RNA (O strain of genotype 1b) replication in HuH-7-derived OR6 cells. Also on record: method as in PMID 21320556. To be noted: 10 µM, OR6 assay; cited from earlier work.
For assay [4], the system named is genome-length HCV-RNA (O strain of genotype 1b) replication in Li23-derived ORL11 cells. Details: method as in PMID 21320556. To be noted: 10 µM, ORL11 assay; cited from earlier work.
Assay [5] deals with genome-length HCV-RNA (O strain of genotype 1b) replication in Li23-derived ORL8 cells. Details: method as in PMID 21320556. To be noted: 10 µM, ORL8 assay; cited from earlier work.
Assay [6] shares this test system. As to the kind of experiment: ORL8 RL assay. Format: cell-based, hepatitis C virus. To be noted: ORL8 cells. The procedure:
RSc and D7 cells were derived from the cell lines HuH-7 and Li23, respectively, were cultured as described previously, [29]. HuH-7-derived OR6 [13], AH1R [30], and 1B-4R [Ikeda et al., submitted] cells harboring genome-length HCV-RNA and HuH-7-derived polyclonal sOR [31], and RSc-JRN/35B [Ikeda et al., submitted] cells harboring an HCV subgenomic replicon were cultured with medium in the presence of G418 (0.3 mg/ml; Geneticin, Invitrogen, Carlsbad, CA) as described previously. Li23-derived ORL8 [20], ORL11 [20], 1B-4RL [Ikeda et al., submitted], and KAH5RL [Ikeda et al., submitted] cells harboring genome-length HCV-RNA were maintained with medium in the presence of G418 (0.3 mg/ml) as described previously. Li23-derived polyclonal sORL8 and sORL11 cells harboring an HCV replicon, which were established by the transfection of ORN/3-5B/QR,KE,SR RNA into the cured OL8 and OL11 cells, respectively, were also cultured with medium in the presence of G418 (0.3 mg/ml) as described previously. […] Therefore, when HCV-RNA is excluded from the cells or when its level is decreased, the cells are killed in the presence of G418.
RL assay was performed as described previously, [24]. Briefly, the cells were plated onto 24-well plates (2×10^4 cells per well) in triplicate and then treated with each reagent at several concentrations for 72 hrs. After treatment, the cells were subjected to luciferase assay using the RL assay system (Promega, Madison, WI). The experiments were performed at least in triplicate. From the assay results, the 50% effective concentration (EC50) of each reagent was determined.
The SI value of each reagent was determined by dividing the CC50 value by the EC50 value.

Assay [7] has as its system HCV-RNA replication in ORL8 cells. The assay can be described thus: Comparative time course RL assay in ORL8 cells. Format: cell-based, hepatitis C virus. To be noted: 1 IU/ml. On the procedure: We next performed a time course assay (2 to 72 hrs after treatment) in the case of ORL8 cells treated with N-89 (0.1 µM or 1 µM) or IFN-α (1 IU/ml; corresponding to approximately EC80). ORL8 cells treated with IFN-α (1 IU/ml) and N-89 (1 µM) had almost the same anti-HCV kinetics over the first […] after treatment (upper panel of Fig. 4); however, within the first 12 hrs after treatment N-89-treated ORL8 cells had more rapid anti-HCV kinetics than did the IFN-α-treated cells (lower panel of Fig. 4).
as §1, with “Figure 4 The anti-HCV action of N-89 was faster than that of IFN-α. The ORL8” for “The ORL8”, “ORL8 assay. […] Similar results were obtained by using N-251 (Fig. 5C and D). […] However, an antimalarial drug, artemisinin, was hardly influenced by co-treatment with VE (Fig. 5E). The value (1.9) of artemisinin was almost the same as that (3.5 or 2.5) of IFN-α or the control, respectively (Fig. 5F).” for “ORL8 assay.”

[8] abbreviates: reagent at expected EC90, Fig. 5F (control 2.5).

Turning to `C[C@@H]1CC[C@H]2[C@@H](C)C(=O)O[C@@H]3O[C@@]4(C)CC[C@@H]1[C@]32OO4` [Artemisinin, reference compound], in assay [1], the anti-HCV activity entry is “weak anti-HCV activity”. In assay [2] (setting [8]), the “VE 10μM(+) / VE 10μM(-) ratio of RL activity” value was determined as 1.9.
For `NC(=O)c1ncn([C@@H]2O[C@H](CO)[C@@H](O)[C@H]2O)n1` [RBV, ribavirin], the “inhibition of HCV-RNA replication” value is on record as “not in the OR6 assay” in assay [3], “efficiently inhibited HCV-RNA replication” in assay [4] and “efficiently inhibited HCV-RNA replication” in assay [5].
Turning to IFN-α, in assay [6], the EC80 is given as approximately 1 IU/ml. In addition, in assay [7], the “time after treatment at which a decrease of RL activity began to be seen” value is 12 h. Also, the “VE 10μM(+) / VE 10μM(-) ratio of RL activity” value in assay [2] (reagent at expected EC90, Fig. 5B (control 3.0)) is 3.2; in assay [2] (reagent at expected EC90, Fig. 5D (control 2.3)) it was 4.3; in assay [2] (setting [8]), 3.5.
